For two compounds, percent remaining results are on record in PubChem BioAssay AID504844 (National Center for Advancing Translational Sciences (NCATS), 2011).

The test system of the series is mouse plasma stability, LC-MS/MS, 48 h. Nature of the series: Inhibitors of HPGD: Mouse Plasma Stability Profiling. Conditions: at 2 µM; active compounds read high. From the text: Human 15-Hydroxyprostaglandin dehydrogenase (HPGD) catalyzes the inactivation of prostaglandin E2, and plays a major role in cancer biology by antagonizing the oncogenic potential of cyclooxygenase type 2 (COX2). Follow-up assays are available, based on absorbance/fluorescence increase of NADH with the substrate 15-OH prostaglandin E2. Please see summary AID for more information on this project. After qHTS, hits were confirmed in follow-up assays, and leads were optimized through SAR. The resulting lead compound was further characterized through a battery ADME-Tox experiments, and this assay describes its stability in mouse plasma. NIH Chemical Genomics Center [NCGC] NIH Molecular Libraries Probe Centers Network [MLPCN] MLPCN Grant: MH084681-02 Assay Submitter (PI): Udo Oppermann, Structural Genomics Consortium
2microM of compound is incubated in mouse plasma, the reference compound is procaine. Compounds are incubated at 37 deg C for the pre-determined time periods and the when aliquots are removed. Samples are analyzed with LC-MS/MS.

Turning to `Cc1cc(-c2nnc3n2CCCCC3)c(C)n1-c1ccccc1`, the percent remaining was 98%.

`Cc1cccc(-n2cnc3cc(C(=O)N4CCCCC4)ccc32)c1`: the percent remaining was 98%.
